Measurements taken from ChEMBL document CHEMBL1143673, “Benzothiophene selective estrogen receptor modulators with modulated oxidative activity and receptor affinity” (J Med Chem, 2007).

Legend:
[1] = biological target: T1, Estrogen receptor beta (Homo sapiens, UniProt Q92731); experiment: Displacement of [3H]estradiol from human recombinant ERbeta relative to estradiol
[2] = biological target: T1, Estrogen receptor beta; experiment: Displacement of [3H]estradiol from human recombinant ERbeta
[3] = species: Homo sapiens; experiment: Selectivity for human ERalpha over human ERbeta
[4] = biological target: T2, Estrogen receptor (Homo sapiens, UniProt P03372)
T2 sequence (P03372 whole entry): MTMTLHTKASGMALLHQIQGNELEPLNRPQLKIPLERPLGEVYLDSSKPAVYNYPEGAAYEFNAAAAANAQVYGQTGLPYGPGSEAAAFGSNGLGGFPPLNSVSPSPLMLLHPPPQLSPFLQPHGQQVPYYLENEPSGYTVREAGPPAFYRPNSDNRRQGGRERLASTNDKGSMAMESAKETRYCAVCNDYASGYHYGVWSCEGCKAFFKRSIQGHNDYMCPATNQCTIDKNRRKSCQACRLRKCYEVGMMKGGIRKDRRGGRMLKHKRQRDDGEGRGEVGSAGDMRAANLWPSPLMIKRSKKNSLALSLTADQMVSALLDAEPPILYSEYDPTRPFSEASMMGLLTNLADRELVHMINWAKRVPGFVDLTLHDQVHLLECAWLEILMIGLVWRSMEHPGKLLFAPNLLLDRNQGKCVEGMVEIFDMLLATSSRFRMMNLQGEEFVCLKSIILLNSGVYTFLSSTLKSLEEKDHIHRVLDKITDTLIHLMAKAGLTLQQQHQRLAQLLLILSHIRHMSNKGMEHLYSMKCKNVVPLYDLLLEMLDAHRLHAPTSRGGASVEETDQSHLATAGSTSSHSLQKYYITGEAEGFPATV
Description: Displacement of [3H]estradiol from human recombinant ERalpha

T1 sequence (Q92731 whole entry): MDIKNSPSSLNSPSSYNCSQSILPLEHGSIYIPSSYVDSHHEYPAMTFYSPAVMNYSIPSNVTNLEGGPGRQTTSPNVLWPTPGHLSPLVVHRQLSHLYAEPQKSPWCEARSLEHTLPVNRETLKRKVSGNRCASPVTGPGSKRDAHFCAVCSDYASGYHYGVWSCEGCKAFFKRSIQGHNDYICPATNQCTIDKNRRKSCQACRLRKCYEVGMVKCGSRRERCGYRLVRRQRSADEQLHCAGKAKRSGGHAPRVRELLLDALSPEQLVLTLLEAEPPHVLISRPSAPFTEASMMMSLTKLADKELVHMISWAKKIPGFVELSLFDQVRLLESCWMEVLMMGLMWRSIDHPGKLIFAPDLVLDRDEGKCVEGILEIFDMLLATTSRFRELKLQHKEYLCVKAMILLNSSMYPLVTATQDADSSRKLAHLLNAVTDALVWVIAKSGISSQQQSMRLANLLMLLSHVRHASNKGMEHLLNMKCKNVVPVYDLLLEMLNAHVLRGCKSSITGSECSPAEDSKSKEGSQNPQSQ

In the case of `Oc1ccc(-c2sc3cc(O)ccc3c2Oc2ccc(OCCN3CCCCC3)cc2)cc1`, the relative binding affinity (RBA) [1] is reported as 1.77 and the IC50 [2] is reported as 9.6 nM.

`O=C(CCl)Nc1ccc(-c2sc3cc(O)ccc3c2Oc2ccc(OCCN3CCCCC3)cc2)cc1` showed a relative binding affinity (RBA) [1] of 0.007, a Ratio [3] of 4.3 and an IC50 [4] of 666 nM. For the same molecule, the IC50 [2] was 2360 nM.

`Nc1ccc(-c2sc3cc(O)ccc3c2Oc2ccc(OCCN3CCCCC3)cc2)cc1` showed a relative binding affinity (RBA) [1] of 0.34, a Ratio [3] of 2.8 and an IC50 [4] of 19.3 nM. For the same molecule, the IC50 [2] was 48.6 nM.

In the case of `Oc1ccc2c(Oc3ccc(OCCN4CCCCC4)cc3)c(-c3ccccc3)sc2c1`, the relative binding affinity (RBA) [1] is reported as 1, the Ratio [3] is reported as 1.7 and the IC50 [4] is reported as 10.9 nM. It also gave an IC50 [2] of 16.3 nM.

Molecule `Oc1ccc2c(Oc3ccc(OCCN4CCCCC4)cc3)c(-c3ccc(F)cc3)sc2c1` has a relative binding affinity (RBA) [1] of 0.68, a Ratio [3] of 1.6 and an IC50 [4] of 17.2 nM. The IC50 [2] was 27.9 nM.

In the case of `Oc1ccc2c(Oc3ccc(OCCN4CCCCC4)cc3)c(-c3ccc(Br)cc3)sc2c1`, the relative binding affinity (RBA) [1] is reported as 0.25, the Ratio [3] is reported as 2.8 and the IC50 [4] is reported as 27 nM. The IC50 [2] was 66.7 nM.

`CS(=O)(=O)c1ccc(-c2sc3cc(O)ccc3c2Oc2ccc(OCCN3CCCCC3)cc2)cc1` showed a relative binding affinity (RBA) [1] of 0.009, a Ratio [3] of 79 and an IC50 [4] of 27 nM. For the same molecule, the IC50 [2] was 1800 nM.

For `COc1ccc(-c2sc3cc(O)ccc3c2Oc2ccc(OCCN3CCCCC3)cc2)cc1`, the relative binding affinity (RBA) [1] was 0.25.

With `Oc1ccc2c(Oc3ccc(OCCN4CCCCC4)cc3)c(-c3ccc(NCCCl)cc3)sc2c1` the relative binding affinity (RBA) [1] was under 0.01, the Ratio [3] was over 50 and the IC50 [4] was 35.6 nM. For the same molecule, the IC50 [2] was over 1600 nM.
